Experimental data as given in ChEMBL document CHEMBL1139221, “2-(4-Chlorobenzyl)-3-hydroxy-7,8,9,10-tetrahydrobenzo[H]quinoline-4-carboxylic acid (PSI-697): identification of a clinical candidate from the quinoline salicylic acid series of P-selectin antagonists” (J Med Chem, 2007).
Calls of active or inactive are those of the source. The calls are words filed in the database; no cut-off is given here.

These molecules were tested against T1, P-selectin (Homo sapiens) (UniProt P16109) (assay: (§1) Inhibition of P-Selectin by Biacore assay).
T1 sequence (whole entry): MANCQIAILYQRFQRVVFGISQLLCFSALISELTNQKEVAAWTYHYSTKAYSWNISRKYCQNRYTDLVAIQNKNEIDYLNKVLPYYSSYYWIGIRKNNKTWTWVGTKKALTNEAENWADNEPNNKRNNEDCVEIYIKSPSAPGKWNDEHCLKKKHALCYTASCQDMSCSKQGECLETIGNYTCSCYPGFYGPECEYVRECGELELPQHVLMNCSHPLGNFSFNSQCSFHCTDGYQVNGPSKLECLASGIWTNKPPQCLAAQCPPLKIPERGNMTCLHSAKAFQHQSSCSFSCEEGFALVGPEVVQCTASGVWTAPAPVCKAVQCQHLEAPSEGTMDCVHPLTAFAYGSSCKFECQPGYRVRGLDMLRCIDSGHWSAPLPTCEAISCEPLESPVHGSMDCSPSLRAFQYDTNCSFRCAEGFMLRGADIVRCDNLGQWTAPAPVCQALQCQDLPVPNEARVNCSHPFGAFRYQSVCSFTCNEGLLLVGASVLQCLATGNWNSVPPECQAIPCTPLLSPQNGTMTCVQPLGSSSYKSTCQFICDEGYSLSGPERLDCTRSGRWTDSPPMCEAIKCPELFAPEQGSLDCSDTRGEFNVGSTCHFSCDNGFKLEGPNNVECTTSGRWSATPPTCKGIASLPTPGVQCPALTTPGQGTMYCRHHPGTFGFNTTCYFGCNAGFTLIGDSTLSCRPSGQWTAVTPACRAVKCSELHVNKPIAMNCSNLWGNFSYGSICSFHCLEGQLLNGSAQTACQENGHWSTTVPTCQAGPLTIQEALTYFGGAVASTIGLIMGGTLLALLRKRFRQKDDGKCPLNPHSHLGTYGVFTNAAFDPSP

SMILES | Activity
CC(C)OC(=O)n1cc(Cc2nc3c4c(ccc3c(C(=O)O)c2O)CCCC4)c2ccccc21 | inactive
CCN1CCc2ccc3c(C(=O)O)c(O)c(Cc4ccc(Cl)cc4)nc3c2C1 | inactive
O=C(O)c1c(O)c(Cc2ccc(Cl)cc2)nc2c3c(ccc12)CCN(C(=O)c1ccccc1)C3 | inactive
O=C(OCc1ccccc1)c1c(OCc2ccccc2)c(Cc2ccc(Cl)cc2)nc2c3c(ccc12)CCCC3 | inactive
O=C(O)c1c(O)c(Cc2csc3ccc(Cl)cc23)nc2c3c(ccc12)CCCC3 | inactive
NC(=O)N1CCc2ccc3c(C(=O)O)c(O)c(Cc4ccc(Cl)cc4)nc3c2C1 | inactive
O=C(O)c1c(O)c(Cc2ccc(Cl)cc2)nc2c3c(ccc12)CCNC3 | inactive
CC(C)N1CCc2ccc3c(C(=O)O)c(O)c(Cc4ccc(Cl)cc4)nc3c2C1 | inactive
CC(=O)N1CCc2ccc3c(C(=O)O)c(O)c(Cc4ccc(Cl)cc4)nc3c2C1 | inactive
O=C(O)c1c(Cc2ccc(Cl)cc2)nc2c3c(ccc2c1O)CCCC3 | inactive
O=C(O)c1c(O)c(Cc2ccc(Cl)cc2)nc2c3c(ccc12)CCN(Cc1ccccc1)C3 | inactive
CCOC(=O)N1CCc2ccc3c(C(=O)O)c(O)c(Cc4ccc(Cl)cc4)nc3c2C1 | inactive
COc1ccc(-c2ccccc2)c2nc(Cc3ccc(Cl)cc3)c(O)c(C(=O)O)c12 | inactive

Results, then the molecule that gave them:

Activity | SMILES
inactive | Cc1ccc2c(C(=O)O)c(O)c(Cc3c[nH]c4ccccc34)nc2c1
inactive | O=C(O)c1c(O)c(Cc2c[nH]c3ccccc23)nc2ccc(OC(F)(F)F)cc12
inactive | O=C(O)c1c(O)c(Cc2c[nH]c3ccccc23)nc2cc(Br)ccc12
inactive | Cc1ccc2nc(Cc3c[nH]c4ccccc34)c(O)c(C(=O)O)c2c1
inactive | CCc1ccc2c(C(=O)O)c(O)c(Cc3c[nH]c4ccccc34)nc2c1
inactive | O=C(O)c1c(O)c(Cc2cn(C(=O)Cc3ccccc3)c3ccccc23)nc2c3c(ccc12)CCCC3
inactive | O=C(O)c1c(O)c(Cc2ccc(Cl)cc2)nc2ccccc12
inactive | O=C(O)c1c(O)c(Cc2c[nH]c3ccccc23)nc2ccccc12
inactive | O=C(O)c1c(O)c(Cc2c[nH]c3ccccc23)nc2c(Cl)cccc12
inactive | O=C(O)c1c(O)c(Cc2c[nH]c3ccccc23)nc2ccc(Br)cc12
inactive | O=C(O)c1c(O)c(Cc2c[nH]c3ccccc23)nc2ccc(F)cc12
inactive | O=C(O)c1c(O)c(Cc2c[nH]c3ccccc23)nc2c(F)cccc12

The molecules below were run against T2, P-selectin (Homo sapiens, UniProt P16109) (assay: as §1).
T2 sequence (P16109 whole entry): T1 sequence (whole entry)

SMILES | IC50 [µM]
O=C(O)c1c(O)c(Cc2ccsc2)nc2c3c(ccc12)CCCC3 | 475
Cc1ccc(-c2nc3c4c(ccc3c(C(=O)O)c2O)CCCC4)s1 | 200
CC(C)S(=O)(=O)N1CCc2ccc3c(C(=O)O)c(O)c(Cc4ccc(Cl)cc4)nc3c2C1 | 500
N#Cc1ccc(Cc2nc3c4c(ccc3c(C(=O)O)c2O)CCCC4)cc1 | 500
O=C(O)c1c(O)c(Cc2ccc(OC(F)(F)F)cc2)nc2c3c(ccc12)CCCC3 | 610
O=C(O)c1c(O)c(Cc2ccc(Cl)cc2)nc2c(OC(F)(F)F)cccc12 | 550
CC(=O)Oc1c(Cc2ccc(Cl)cc2)nc2c3c(ccc2c1C(=O)O)CCCC3 | 545
CS(=O)(=O)N1CCc2ccc3c(C(=O)O)c(O)c(Cc4ccc(Cl)cc4)nc3c2C1 | 625
O=C(Oc1c(Cc2ccc(Cl)cc2)nc2c3c(ccc2c1C(=O)O)CCCC3)c1cccs1 | 175
COC(=O)Oc1c(Cc2ccc(Cl)cc2)nc2c3c(ccc2c1C(=O)O)CCCC3 | 400
O=C(O)c1c(O)c(Nc2ccc(Cl)cc2)nc2c(C(F)(F)F)cccc12 | 125
O=C(O)c1c(O)c(Cc2cccs2)nc2c3c(ccc12)CCCC3 | 413
O=C(Oc1c(Cc2ccc(Cl)cc2)nc2c3c(ccc2c1C(=O)O)CCCC3)c1ccccc1 | 190
O=C(O)c1c(O)c(Cc2ccc(Cl)cc2)nc2c(-c3ccoc3)cccc12 | 150
O=C(O)c1c(OCc2ccccc2)c(Cc2ccc(Cl)cc2)nc2c3c(ccc12)CCCC3 | 390
NC(=O)c1ccc(Cc2nc3c4c(ccc3c(C(=O)O)c2O)CCCC4)cc1 | 1250
O=C(O)c1c(OC(=O)C2CCCCC2)c(Cc2ccc(Cl)cc2)nc2c3c(ccc12)CCCC3 | 175
O=C(O)c1c(O)c(-c2ccccc2)nc2c3c(ccc12)CCCC3 | 550
O=C(O)c1c(O)c(CCc2ccccc2)nc2c3c(ccc12)CCCC3 | 450
CC(C)c1cccc2c(C(=O)O)c(O)c(Cc3ccc(Cl)cc3)nc12 | 225
O=C(O)c1c(O)c(Cc2ccc(Cl)cc2)nc2c(C(F)(F)F)cccc12 | 325
O=C(O)c1c(O)c(Cc2ccc(Cl)cc2)nc2c3c(ccc12)CCC3 | 580
CC(C)COC(=O)Oc1c(Cc2ccc(Cl)cc2)nc2c3c(ccc2c1C(=O)O)CCCC3 | 250
O=C(O)c1c(O)c(Cc2ccc(Cl)cc2)nc2c(-c3ccsc3)cccc12 | 225
CCC(C)c1cccc2c(C(=O)O)c(O)c(Cc3ccc(Cl)cc3)nc12 (centres undefined) | 300

Second part, the molecule after the results:

IC50 [µM] | SMILES
270 | Cc1[nH]c2ccccc2c1Cc1nc2c3c(ccc2c(C(=O)O)c1O)CCCC3
650 | O=C(O)c1c(O)c(Cc2ccc(Cl)cc2)nc2ccc(Br)cc12
900 | O=C(O)c1c(O)c(Cc2ccc(Cl)cc2)nc2cc(Cl)ccc12
1500 | Cc1ccc2c(C(=O)O)c(O)c(-c3ccccc3)nc2c1C
225 | O=C(O)c1c(O)c(Cc2coc3ccccc23)nc2c3c(ccc12)CCCC3
1000 | Cc1cccc2c(C(=O)O)c(O)c(Cc3ccc(Cl)cc3)nc12
250 | CCc1cccc2c(C(=O)O)c(O)c(Cc3ccc(Cl)cc3)nc12
715 | O=C(O)c1c(O)c(Cc2ccc(Cl)cc2)nc2c(Cl)cccc12
6500 | O=C(O)c1c(O)c(-c2ccccc2)nc2ccccc12 [OXYCINCHOPHEN]
415 | CC(C)c1cccc2c(C(=O)O)c(O)c(Cc3c[nH]c4ccccc34)nc12
200 | Cc1ccc2[nH]cc(Cc3nc4c5c(ccc4c(C(=O)O)c3O)CCCC5)c2c1
413 | O=C(O)c1c(O)c(Cc2ccccc2)nc2c3c(ccc12)CCCC3
400 | COc1ccc2[nH]cc(Cc3nc4c5c(ccc4c(C(=O)O)c3O)CCCC5)c2c1
380 | O=C(O)c1c(O)c(Cc2c[nH]c3ccccc23)nc2c(-c3ccsc3)cccc12
225 | O=C(O)c1c(O)c(-c2c[nH]c3ccccc23)nc2c3c(ccc12)CCCC3
200 | O=C(O)c1c(O)c(Cc2ccc(Cl)cc2)nc2c(-c3ccccc3)cccc12
425 | O=C(O)c1c(O)c(Cc2ccc(Cl)cc2)nc2c(Br)cccc12
100 | O=C(O)c1c(O)c(Cc2csc3ccccc23)nc2c3c(ccc12)CCCC3
175 | O=C(O)c1c(O)c(Cc2c[nH]c3ccc(Br)cc23)nc2c3c(ccc12)CCCC3

The molecules below were run against T1, P-selectin (Homo sapiens) (assay: Inhibition of P-Selectin by Biacore assay at 500 uM).

SMILES | inhibition [%]
O=C(O)c1c(O)c(Cc2ccc(Cl)cc2)nc2c(C(=O)O)cccc12 | 8
CC(=O)n1cc(Cc2nc3c4c(ccc3c(C(=O)O)c2O)CCCC4)c2ccccc21 | 34
O=C(O)c1c(O)c(Cc2ccc(Cl)c(Cl)c2)nc2c3c(ccc12)CCCC3 | 36
O=C(O)c1ccc(Cc2nc3c4c(ccc3c(C(=O)O)c2O)CCCC4)cc1 | 10
Cc1c(Cc2nc3c4c(ccc3c(C(=O)O)c2O)CCCC4)sc2ccccc12 | 22
CC(C)(C)c1cccc2c(C(=O)O)c(O)c(Cc3ccc(Cl)cc3)nc12 | 12

Now from value to molecule:

inhibition [%] | SMILES
11 | Cc1cccc2c(C(=O)O)c(O)c(Cc3c[nH]c4ccccc34)nc12
15 | O=C(O)c1c(O)c(Cc2c[nH]c3ccccc23)nc2c(C(F)(F)F)cccc12
12 | Cc1ccc2c(C(=O)O)c(O)c(Cc3ccc(Cl)cc3)nc2c1
38 | O=C(O)c1c(O)c(Cc2ccc(Cl)cc2)nc2ccc(-c3ccccc3)cc12
18 | O=C(O)c1c(O)c(Cc2c[nH]c3ccccc23)nc2c(OC(F)(F)F)cccc12
12 | O=C(O)c1c(O)c(Cc2ccc(Cl)cc2)nc2c(F)cccc12
19 | CCc1ccc2c(C(=O)O)c(O)c(Cc3ccc(Cl)cc3)nc2c1
15 | O=C(O)c1c(O)c(Cc2c[nH]c3ccccc23)nc2c(Br)cccc12
19 | CCc1cccc2c(C(=O)O)c(O)c(Cc3c[nH]c4ccccc34)nc12

The molecules below were run against T1, P-selectin (Homo sapiens) (assay: Inhibition of P-Selectin by Biacore assay at 250 uM).

inhibition [%] | SMILES
20 | COc1c(Cc2ccc(Cl)cc2)nc2c3c(ccc2c1C(=O)O)CCCC3
10 | CC(=O)Nc1c(Cc2ccc(Cl)cc2)nc2c3c(ccc2c1C(=O)O)CCCC3
13 | CC(C)C(=O)Oc1c(Cc2ccc(Cl)cc2)nc2c3c(ccc2c1C(=O)O)CCCC3
15 | Nc1c(Cc2ccc(Cl)cc2)nc2c3c(ccc2c1C(=O)O)CCCC3
19 | O=C(Nc1c(Cc2ccc(Cl)cc2)nc2c3c(ccc2c1C(=O)O)CCCC3)c1ccccc1
